According to US10189836B2, “Therapeutic compounds, compositions and methods of use thereof” (Genentech, Inc., priority 2015, dated 2019):

Columns and labels:
[1] = molecular target: isolated recombinant JAK1 kinase domain (Homo sapiens (Human), UniProt P23458); experiment: JAK1 enzyme assay (Caliper LabChip, Ki); format: biochemical; settings: isolated recombinant JAK1 kinase domain, 1.5 nM enzyme, ATP 25 μM
[2] = molecular target: isolated recombinant JAK2 kinase domain (Homo sapiens (Human), UniProt O60674); experiment: JAK2 enzyme assay (Caliper LabChip, Ki); format: biochemical; settings: isolated recombinant JAK2 kinase domain, 0.2 nM enzyme, ATP 25 μM
Chain of isolated recombinant JAK2 kinase domain (O60674 849-1124): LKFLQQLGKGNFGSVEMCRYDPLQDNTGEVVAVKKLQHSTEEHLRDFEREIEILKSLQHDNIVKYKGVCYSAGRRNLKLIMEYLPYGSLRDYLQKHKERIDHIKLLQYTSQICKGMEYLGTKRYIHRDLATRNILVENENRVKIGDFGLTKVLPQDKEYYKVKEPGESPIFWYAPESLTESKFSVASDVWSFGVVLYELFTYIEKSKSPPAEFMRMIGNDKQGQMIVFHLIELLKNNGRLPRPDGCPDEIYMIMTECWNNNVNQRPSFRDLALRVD

Chain of isolated recombinant JAK1 kinase domain (P23458 875-1153): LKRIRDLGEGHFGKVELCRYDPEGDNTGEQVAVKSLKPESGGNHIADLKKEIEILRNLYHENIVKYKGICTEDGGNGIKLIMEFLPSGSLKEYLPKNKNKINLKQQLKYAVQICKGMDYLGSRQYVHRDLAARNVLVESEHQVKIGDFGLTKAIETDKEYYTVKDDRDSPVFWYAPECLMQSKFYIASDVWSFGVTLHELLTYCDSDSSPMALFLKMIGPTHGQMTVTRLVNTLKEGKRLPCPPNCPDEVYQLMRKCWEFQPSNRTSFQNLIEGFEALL

Row | Structure (SMILES) | Ki [1] [nM] | Ki [2] [nM]
1 | CN1CCN(C(=O)Cn2cc(Nc3nc4c(N5CC6CCC(C5)N6C(=O)Cc5ccc(F)cc5)cccn4n3)cn2)CC1 [Example 66, 2-(4-fluorophenyl)-1-[3-[2-[[1-[2-(4-methylpiperazin-1-yl)-2-oxo-ethyl]pyrazol-4-yl]amino]-[1,2,4]triazolo[1,5-a]pyridin-8-yl]-3,8-diazabicyclo[3.2.1]octan-8-yl]ethanone] | 0.7 | 1.4
2 | CC(CC(=O)N1C2CCC1CN(c1cccn3nc(Nc4cnn(CC(=O)N5CCN(C)CC5)c4)nc13)C2)C(F)(F)F (stereo not shown) [Example 67, 4,4,4-trifluoro-3-methyl-1-[3-[2-[[1-[2-(4-methylpiperazin-1-yl)-2-oxo-ethyl]pyrazol-4-yl]amino]-[1,2,4]triazolo[1,5-a]pyridin-8-yl]-3,8-diazabicyclo[3.2.1]octan-8-yl]butan-1-one] | 0.8 | 1.4
3 | CN1CCN(C(=O)Cn2cc(Nc3nc4c(N5CC6CCC(C5)N6C(=O)c5cccc(CC#N)c5)cccn4n3)cn2)CC1 [Example 69, 2-[3-[3-[2-[[1-[2-(4-methylpiperazin-1-yl)-2-oxo-ethyl]pyrazol-4-yl]amino]-[1,2,4]triazolo[1,5-a]pyridin-8-yl]-3,8-diazabicyclo[3.2.1]octane-8-carbonyl]phenyl] acetonitrile] | 2.3 | 9.3
4 | CN1CCN(C(=O)Cn2cc(Nc3nc4c(N5CC6CCC(C5)N6C(=O)C(C)(C)CC(F)(F)F)cccn4n3)cn2)CC1 [Example 71, 4,4,4-trifluoro-2,2-dimethyl-1-[3-[2-[[1-[2-(4-methylpiperazin-1-yl)-2-oxo-ethyl]pyrazol-4-yl]amino]-[1,2,4]triazolo[1,5-a]pyridin-8-yl]-3,8-diazabicyclo[3.2.1]octan-8-yl]butan-1-one] | 1.8 | 1.8
5 | O=C(Cn1cc(Nc2nc3c(N4CC5CCC(C4)N5C(=O)CCC(F)(F)F)cccn3n2)cn1)N1CCC(N2CCOCC2)CC1 [Example 74, 4,4,4-trifluoro-1-[3-[2-[[1-[2-(4-morpholino-1-piperidyl)-2-oxo-ethyl]pyrazol-4-yl]amino]-[1,2,4]triazolo[1,5-a]pyridin-8-yl]-3,8-diazabicyclo[3.2.1]octan-8-yl]butan-1-one] | 1 | 2.7
6 | CN(C)C(=O)CN1CCN(CC2CCN(C(=O)Cn3cc(Nc4nc5c(N6CC7CCC(C6)N7C(=O)CCC(F)(F)F)cccn5n4)cn3)CC2)CC1 [Example 75, N,N-dimethyl-2-[4-[[1-[2-[4-[[8-[8-(4,4,4-trifluorobutanoyl)-3,8-diazabicyclo[3.2.1]octan-3-yl]-[1,2,4]triazolo[1,5-a]pyridin-2-yl]amino]pyrazol-1-yl]acetyl]-4-piperidyl]methyl]piperazin-1-yl]acetamide] | 1.4 | 3.9
7 | CN1CCN(C(=O)Cn2cc(Nc3nc4c(N5CC6CCC(C5)N6C(=O)c5cccs5)cccn4n3)cn2)CC1 [Example 76, 1-(4-methylpiperazin-1-yl)-2-[4-[[8-[8-(thiophene-2-carbonyl)-3,8-diazabicyclo[3.2.1]octan-3-yl]-[1,2,4]triazolo[1,5-a]pyridin-2-yl]amino]pyrazol-1-yl]ethanone] | 0.8 | 1.3
8 | CN1CCN(C(=O)Cn2cc(Nc3nc4c(N5CC6CCC(C5)N6C(=O)CC(C)(C)C(F)(F)F)cccn4n3)cn2)CC1 [Example 77, 4,4,4-trifluoro-3,3-dimethyl-1-[3-[2-[[1-[2-(4-methylpiperazin-1-yl)-2-oxo-ethyl]pyrazol-4-yl]amino]-[1,2,4]triazolo[1,5-a]pyridin-8-yl]-3,8-diazabicyclo[3.2.1]octan-8-yl]butan-1-one] | 1.7 | 2.3
9 | CN1CCN(C(=O)Cn2cc(Nc3nc4c(N5CC6CCC(C5)N6C(=O)c5cncs5)cccn4n3)cn2)CC1 [Example 78, 1-(4-methylpiperazin-1-yl)-2-[4-[[8-[8-(thiazole-5-carbonyl)-3,8-diazabicyclo[3.2.1]octan-3-yl]-[1,2,4]triazolo[1,5-a]pyridin-2-yl]amino]pyrazol-1-yl]ethanone] | 0.8 | 1.3
10 | COC(=O)N1CCN(CC2CCN(C(=O)Cn3cc(Nc4nc5c(N6CC7CCC(C6)N7C(=O)CCC(F)(F)F)cccn5n4)cn3)CC2)CC1 [Example 79, methyl 4-[[1-[2-[4-[[8-[8-(4,4,4-trifluorobutanoyl)-3,8-diazabicyclo[3.2.1]octan-3-yl]-[1,2,4]triazolo[1,5-a]pyridin-2-yl]amino]pyrazol-1-yl]acetyl]-4-piperidyl]methyl]piperazine-1-carboxylate] | 0.8 | 1.6
11 | COC(=O)C1C2CCC1CN(c1cccn3nc(Nc4cnn(CC(=O)N5CCN(C)CC5)c4)nc13)C2 (stereo not shown) [Example 80, methyl 3-[2-[[1-[2-(4-methylpiperazin-1-yl)-2-oxo-ethyl]pyrazol-4-yl]amino]-[1,2,4]triazolo[1,5-a]pyridin-8-yl]-3-azabicyclo[3.2.1]octane-8-carboxylate] | 1.5 | 3.1
12 | CN(C)C(=O)CN1CCN(CC2CCN(C(=O)Cn3cc(Nc4nc5c(N6CC7CCC(C6)N7C(=O)N6CC(C(F)(F)F)C6)cccn5n4)cn3)CC2)CC1 [Example 81, N,N-dimethyl-2-[4-[[1-[2-[4-[[8-[8-[3-(trifluoromethyl)azetidine-1-carbonyl]-3,8-diazabicyclo[3.2.1]octan-3-yl]-[1,2,4]triazolo[1,5-a]pyridin-2-yl]amino]pyrazol-1-yl]acetyl]-4-piperidyl]methyl]piperazin-1-yl]acetamide] | 1 | 0.8
13 | O=C(Cn1cc(Nc2nc3c(N4CC5CCC(C4)N5C(=O)[C@H]4C[C@@H](C(F)(F)F)C4)cccn3n2)cn1)N1CCN(C2CSC2)CC1 [Example 82] | 0.4 | 0.3
14 | O=C(Cn1cc(Nc2nc3c(N4CC5CCC(C4)N5C(=O)[C@H]4C[C@H](C(F)(F)F)C4)cccn3n2)cn1)N1CCN(C2CSC2)CC1 [Example 83, 1-[4-(thietan-3-yl)piperazin-1-yl]-2-[4-[[8-[8-[3-(trifluoromethyl)cyclo-butanecarbonyl]-3,8-diazabicyclo[3.2.1]octan-3-yl]-[1,2,4]triazolo[1,5-a]pyridin-2-yl]amino]pyrazol-1-yl]ethanone] | 1.6 | 4
15 | CN1CCN(C(=O)Cn2cc(Nc3nc4c(N5C[C@H]6CC[C@@H](C5)[C@H]6OCc5cccnc5)cccn4n3)cn2)CC1 [Example 84, 1-(4-methylpiperazin-1-yl)-2-[4-[[8-[(1S,5R)-8-(3-pyridylmethoxy)-3-azabicyclo[3.2.1]octan-3-yl]-[1,2,4]triazolo[1,5-a]pyridin-2-yl]amino]pyrazol-1-yl]ethanone] | 0.4 | 0.8
16 | CN1CCN(C(=O)Cn2cc(Nc3nc4c(N5CC6CCC(C5)N6Cc5ccccc5)cccn4n3)cn2)CC1 [Example 86, 2-[4-[[8-(8-benzyl-3,8-diazabicyclo[3.2.1]octan-3-yl)-[1,2,4]triazolo[1,5-a]alpyridin-2-yl]amino]pyrazol-1-yl]-1-(4-methylpiperazin-1-yl)ethanone] | 19.2 | 105
17 | CN1CCN(C(=O)Cn2cc(Nc3nc4c(N5CC6CCC(C5)N6C(=O)c5ccns5)cccn4n3)cn2)CC1 [Example 87, 2-[4-[[8-[8-(isothiazole-5-carbonyl)-3,8-diazabicyclo[3.2.1]octan-3-yl]-[1,2,4]triazolo[1,5-a]pyridin-2-yl]amino]pyrazol-1-yl]-1-(4-methylpiperazin-1-yl)ethanone] | 0.6 | 0.9
18 | CN1CCN(C(=O)Cn2cc(Nc3nc4c(N5CC6CCC(C5)N6S(=O)(=O)c5cccc(Cl)c5)cccn4n3)cn2)CC1 [Example 88, 2-[4-[[8-[8-(3-chlorophenyl)sulfonyl-3,8-diazabicyclo[3.2.1]octan-3-yl]-[1,2,4]triazolo[1,5-a]pyridin-2-yl]amino]pyrazol-1-yl]-1 - (4-methylpiperazin-1-yl)ethanone] | 0.3 | 0.3
19 | CN1CCN(C(=O)Cn2cc(Nc3nc4c(N5CC6CCC(C5)N6C(=O)c5ccc(Cl)cc5)cccn4n3)cn2)CC1 [Example 89] | 3.1 | 13.4
20 | CN1CCN(C(=O)Cn2cc(Nc3nc4c(N5CC6CCC(C5)N6C(=O)c5cccc(Cl)c5)cccn4n3)cn2)CC1 [Example 90, 2-[4-[[8-[8-(3-chlorobenzoyl)-3,8-diazabicyclo[3.2.1]octan-3-yl]-[1,2,4]triazolo[1,5-a]pyridin-2-yl]amino]pyrazol-1-yl]-1-(4-methylpiperazin-1-yl)ethanone] | 0.8 | 2.3
21 | CN1CCN(C(=O)Cn2cc(Nc3nc4c(N5CC6CCC(C5)N6C(=O)CC5CC(F)(F)C5(F)F)cccn4n3)cn2)CC1 (stereo not shown) [Example 91, 1-[3-[2-[[1-[2-(4-methylpiperazin-1-yl)-2-oxo-ethyl]pyrazol-4-yl]amino]-[1,2,4]triazolo[1,5-a]alpyridin-8-yl]-3,8-diazabicyclo[3.2.1]octan-8-yl]-2(2,2,3,3-tetrafluorocyclobutyl) ethanone] | 0.8 | 0.9
22 | CN1CCN(C(=O)Cn2cc(Nc3nc4c(N5CC6CCC(C5)N6C(=O)C5CC(C#N)C5)cccn4n3)cn2)CC1 (stereo not shown) [Example 92, 3-[3-[2-[[1-[2-(4-methylpiperazin-1-yl)-2-oxo-ethyl]pyrazol-4-yl]amino]-[1,2,4]triazolo[1,5-a]pyridin-8-yl]-3,8-diazabicyclo[3.2.1]octane-8-carbonyl]cyclo-butanecarbonitrile] | 0.9 | 1.7
23 | CN1CCN(C(=O)Cn2cc(Nc3nc4c(N5CC6CCC(C5)N6S(=O)(=O)c5ccc(Cl)cc5)cccn4n3)cn2)CC1 [Example 93, 2-[4-[[8-[8-(4-chlorophenyl)sulfonyl-3,8-diazabicyclo[3.2.1]octan-3-yl]-[1,2,4]triazolo[1,5-a]pyridin-2-yl]amino]pyrazol-1-yl]-1-(4-methylpiperazin-1-yl)ethanone] | 0.3 | 0.8
